Laboratory results published in US20080287398A1, “COLD MENTHOL RECEPTOR-1 ANTAGONISTS” (priority 2007, published 2008).
“And” between values parts separate entries of the source, which are not always exact repeats. Identical values can stand only once. Like-named read-outs stand apart in the source and are kept apart here.

Molecular target: T1, canine TRPM8 (Canis lupus familiaris, UniProt Q1A7N1)
T1 construct: expressed in transfected cells
Experiment: In vitro canine TRPM8 functional assay (Ca2+-sensitive dye, FLIPR/FDSS, icilin activation)
Format: cell-based
Conditions: HEK293 cells expressing canine TRPM8, icilin activation; for IC50: eight-point dose-response; for % I (1 μM): 1 μM compound; for % I (0.5 μM): 0.5 μM compound; for % I (5 μM): 5 μM compound
In short: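 Icilin challenge (final concentration producing ~80% of maximal response) followed a 5 min compound exposure in canine TRPM8-HEK293 cells dye-loaded with Calcium 3. Intracellular Ca2+ was read on FLIPR/FDSS. EC50 and IC50 values came from nonlinear sigmoidal dose-response fits of basal-subtracted, percent-of-maximum data averaged over quadruplicates.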

[1] = HEK293, read-out: % I (1 μM), 1 μM compound
[2] = HEK293, 1 μM compound, read-out: % I (1 μM)

T1 sequence (Q1A7N1 1-1104): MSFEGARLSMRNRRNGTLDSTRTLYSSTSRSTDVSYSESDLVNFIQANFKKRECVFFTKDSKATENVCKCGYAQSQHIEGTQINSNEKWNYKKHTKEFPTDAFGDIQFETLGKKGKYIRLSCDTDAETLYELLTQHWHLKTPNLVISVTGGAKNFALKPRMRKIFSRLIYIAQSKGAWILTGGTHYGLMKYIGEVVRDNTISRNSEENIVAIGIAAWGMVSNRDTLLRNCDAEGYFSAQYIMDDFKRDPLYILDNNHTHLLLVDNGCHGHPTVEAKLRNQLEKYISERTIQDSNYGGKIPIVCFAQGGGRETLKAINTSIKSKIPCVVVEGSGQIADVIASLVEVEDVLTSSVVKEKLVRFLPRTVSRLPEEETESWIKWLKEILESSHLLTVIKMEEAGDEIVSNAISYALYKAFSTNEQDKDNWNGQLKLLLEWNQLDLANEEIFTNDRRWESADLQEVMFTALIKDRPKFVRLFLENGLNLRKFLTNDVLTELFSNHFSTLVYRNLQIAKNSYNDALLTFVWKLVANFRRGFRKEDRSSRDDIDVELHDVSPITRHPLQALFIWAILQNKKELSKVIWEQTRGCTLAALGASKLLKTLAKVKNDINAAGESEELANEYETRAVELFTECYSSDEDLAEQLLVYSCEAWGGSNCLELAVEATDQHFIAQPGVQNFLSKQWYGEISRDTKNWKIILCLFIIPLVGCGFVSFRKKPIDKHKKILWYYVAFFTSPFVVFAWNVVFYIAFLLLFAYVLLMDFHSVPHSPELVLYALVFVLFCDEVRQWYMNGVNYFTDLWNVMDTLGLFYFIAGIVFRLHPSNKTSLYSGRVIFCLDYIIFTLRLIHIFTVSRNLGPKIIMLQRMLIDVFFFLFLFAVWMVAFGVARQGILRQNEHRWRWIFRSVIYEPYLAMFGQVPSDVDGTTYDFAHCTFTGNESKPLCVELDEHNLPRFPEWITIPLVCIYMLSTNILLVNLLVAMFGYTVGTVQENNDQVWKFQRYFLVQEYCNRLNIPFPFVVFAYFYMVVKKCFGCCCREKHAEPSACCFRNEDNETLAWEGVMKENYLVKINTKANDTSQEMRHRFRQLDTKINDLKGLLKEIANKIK

CCOP(=O)(OCC)C(Cc1ccc(F)c(F)c1)c1sc2cccc(C(F)(F)F)c2c1C (stereo not drawn) [Cpd 84]
inhibition at 1 µM [1]: 97%
IC50 (IC50 (μM)): 0.46 µM

CCOP(=O)(OCC)C(Cc1cccc(Cl)c1Cl)c1cc2ccccc2s1 (stereo not drawn) [Cpd 100]
% I (1 μM): 82%
IC50 (read-out: IC50): 0.73 µM

CCOP(=O)(OCC)C(Cc1ccc(F)c(F)c1)c1sc2c(C(F)(F)F)cccc2c1C (stereo not drawn) [Cpd 116]
% I (1 μM): 64%

CCOP(=O)(OCC)C(Cc1ccc(F)cc1Cl)c1cc2ccccc2s1 (stereo not drawn) [Cpd 98]
% I (1 μM): 79%
IC50 (read-out: IC50): 0.71 µM

CCOP(=O)(OCC)C(Cc1cccc(C(F)(F)F)c1F)c1sc2ccccc2c1Cl (racemic) [Cpd 281]
% I (0.5 μM): 102%
IC50 (read-out: IC50): 0.131 µM

CC(C)OP(=O)(OC(C)C)C(Cc1ccc(F)c(C(F)(F)F)c1)c1c(Br)c2ccccc2n1S(C)(=O)=O (stereo not drawn) [Cpd 330, [1-(3-Bromo-1-methanesulfonly-1H-indol-2-yl)-2-(4-fluoro-3-trifluoromethyl-phenyl)-ethyl]-phosphonic acid diisopropyl ester]
IC50 (read-out: IC50): 0.137 µM

CCOP(=O)(OCC)C(Cc1ccccc1F)c1csc2ccccc12 (stereo not drawn) [Cpd 86]
% I (5 μM): 101%
IC50 (read-out: IC50): 0.5 µM

CCOP(=O)(OCC)C(Cc1ccc(F)c(Cl)c1)c1sc2ccccc2c1Cl (racemic) [Cpd 297]
% I (0.5 μM): 103%
IC50 (read-out: IC50): 0.04 µM

CCOP(=O)(Cc1cc2ccccc2s1)OCc1ccccc1C (stereo not drawn) [Cpd 104, Benzo[b]thiophen-2-ylmethyl-phosphonic acid ethyl ester 2-methyl-benzyl ester]
% I (5 μM): 99%
inhibition at 1 µM [1]: 53%
IC50 (IC50 (μM)): 0.96 µM

CC(C)OP(=O)(OC(C)C)C(Cc1ccc(Cl)c(F)c1)c1sc2ccccc2c1Cl (racemic) [Cpd 302]
% I (0.5 μM): 103%
IC50 (read-out: IC50): 0.079 µM

CCOP(=O)(OCC)C(Cc1ccc(C(F)(F)F)c(F)c1)c1cc2ccccc2s1 (stereo not drawn) [Cpd 58]
% I (1 μM): 100%
IC50 (read-out: IC50): 0.27 µM

CCOP(=O)(OCC)C(Cc1ccc(C(F)(F)F)cc1)c1sc2ccccc2c1Br (racemic) [Cpd 154]
% I (0.5 μM): 103%
IC50 (read-out: IC50): 0.027 µM

[2-(3,4-Difluoro-phenyl)-1-(3-methyl-benzo[b]thiophene-2-yl)-ethyl]-methyl-phosphonic acid ethyl ester [Cpd 106]
% I (1 μM): 32%
IC50 (read-out: IC50): 1.26 µM

CCOP(=O)(OCC)C(Cc1cc(F)cc(C(F)(F)F)c1)c1sc2ccccc2c1Br (stereo not drawn) [Cpd 140]
% I (0.5 μM): 102%
IC50 (read-out: IC50): 0.056 µM

CCOP(=O)(OCC)C(Cc1ccc(F)c(F)c1)c1sc2cccc(F)c2c1C (stereo not drawn) [Cpd 3, [2-(3,4-Difluoro-phenyl)-1-(4-fluoro-3-methyl-benzo[b]-thiophene-2-yl)-ethyl]-phosphonic acid diethyl ester]
inhibition at 1 µM [1]: 100%
IC50 (IC50 (μM)): 0.012 µM and 0.051 µM

CC(C)OP(=O)(OC(C)C)C(Cc1cccc(C(F)(F)F)c1Cl)c1sc2ccccc2c1Cl (stereo not drawn) [Cpd 177]
% I (0.5 μM): 96%
IC50 (read-out: IC50): 0.139 µM

CCOP(=O)(OCC)C(Cc1cc2c(cc1Cl)OCO2)c1sc2ccccc2c1C (stereo not drawn) [Cpd 71]
% I (1 μM): 98%
IC50 (read-out: IC50): 0.36 µM

CCOP(=O)(OCC)C(Cc1ccc(F)c(F)c1)c1sc2ccccc2c1-c1cccnc1F (stereo not drawn) [Cpd 128, {2-(3,4-Difluoro-phenyl)-1-[3-(2-fluoro-pyridin-3-yl)-benzo[b]thiophen-2-yl]-ethyl}-phosphonic acid diethyl ester]
inhibition at 1 µM [1]: 100%
IC50 (IC50 (μM)): 0.02 µM

Cc1c(C(Cc2ccc(F)c(F)c2)P(=O)(OC2CCCCC2)OC2CCCCC2)sc2ccccc12 (stereo not drawn) [Cpd 101, [2-(3,4-Difluoro-phenyl)-1-(3-methyl-benzo[b]thiophen-2-yl)-ethyl]-phosphonic acid dicyclohexyl ester]
inhibition at 1 µM [2]: 55%
IC50 (read-out: IC50): 0.75 µM

COc1ccc(CC(c2sc3ccccc3c2Cl)P(=O)(OC(C)C)OC(C)C)cc1C(F)(F)F (stereo not drawn) [Cpd 176]
% I (0.5 μM): 104%
IC50 (read-out: IC50): 0.131 µM

CC(C)OP(=O)(OC(C)C)C(Cc1cc(O)c(Cl)cc1F)c1sc2ccccc2c1Br (racemic) [Cpd 232]
% I (0.5 μM): 99%
IC50 (read-out: IC50): 0.063 µM

CC(C)OP(=O)(OC(C)C)C(Cc1c(Cl)cccc1Cl)c1sc2ccccc2c1Cl (stereo not drawn) [Cpd 183]
% I (0.5 μM): 103%
IC50 (read-out: IC50): 0.131 µM

CCOP(=O)(OCC)C(Cc1ccc(C(F)(F)F)cc1)c1cc2ccccc2s1 (stereo not drawn) [Cpd 68]
% I (1 μM): 96%
IC50 (read-out: IC50): 0.34 µM

CCOP(=O)(OCC)C(Cc1ccc(F)c(OC)c1)c1sc2ccccc2c1Br (stereo not drawn) [Cpd 156]
inhibition at 0.5 µM (HEK293, read-out: % I (0.5 μM), 0.5 μM compound): 103%
IC50 (IC50 (μM)): 0.015 µM and 0.032 µM

CCOP(=O)(OCC)C(Cc1ccc(F)c(F)c1)c1sc2ccccc2c1-c1cccc(C(=O)OC)c1 (racemic) [Cpd 219]
% I (0.5 μM): 68%

CC(C)OP(=O)(OC(C)C)C(Cc1cccc(SC(F)(F)F)c1)c1sc2ccccc2c1Br (stereo not drawn) [Cpd 250]
% I (0.5 μM): 103%
IC50 (read-out: IC50): 0.048 µM

CCOP(=O)(OCC)C(Cc1ccccc1C(F)(F)F)c1sc2ccccc2c1Cl (racemic) [Cpd 279]
% I (0.5 μM): 97%
IC50 (read-out: IC50): 0.291 µM

CCOP(=O)(OCC)C(Cc1ccc(Br)cc1)c1cc2ccccc2s1 (stereo not drawn) [Cpd 70]
% I (1 μM): 82%
% I (5 μM): 99%
IC50 (read-out: IC50): 0.35 µM

CCOP(=O)(OCC)C(Cc1ccccc1Br)c1sc2ccccc2c1C (stereo not drawn) [Cpd 66]
% I (1 μM): 100%
IC50 (read-out: IC50): 0.33 µM

CCOP(=O)(OCC)C(Cc1ccc(C(F)(F)F)c(F)c1)c1sc2ccccc2c1Cl (stereo not drawn) [Cpd 273]
% I (0.5 μM): 103%
IC50 (read-out: IC50): 0.116 µM

Cc1c(C(Cc2ccc(F)c(F)c2)P(=O)(OC(C)C)OC(C)C)sc2ccc(Cl)cc12 (stereo not drawn) [Cpd 92, [1-(5-Chloro-3-methyl-benzo[b]thiophen-2-yl)-2-(3,4-difluoro-phenyl)-ethyl]-phosphonic acid diisopropyl ester]
inhibition at 1 µM [2]: 91%
IC50 (read-out: IC50): 0.58 µM

CC(C)OP(=O)(OC(C)C)C(Cc1ccc(C(F)(F)F)cc1F)c1sc2ccccc2c1Br (racemic) [Cpd 289]
% I (0.5 μM): 103%
IC50 (read-out: IC50): 0.051 µM

CCOP(=O)(OCC)C(Cc1ccc(C(F)(F)F)cc1F)c1sc2ccccc2c1Br (racemic) [Cpd 150]
% I (0.5 μM): 103%
IC50 (read-out: IC50): 0.09 µM

CCOP(=O)(OCC)C(Cc1ccc(Cl)c(F)c1)c1sc2ccccc2c1Br (stereo not drawn) [Cpd 258]
% I (0.5 μM): 102%
IC50 (read-out: IC50): 0.045 µM

CC(C)OP(=O)(OC(C)C)C(Cc1ccc(Cl)c(C(F)(F)F)c1)c1sc2ccccc2c1Cl (racemic) [Cpd 167]
% I (0.5 μM): 104%
IC50 (read-out: IC50): 0.097 µM

CCOP(=O)(OCC)C(Cc1cccc(C(F)(F)F)c1F)c1sc2ccccc2c1Br (stereo not drawn) [Cpd 142]
% I (0.5 μM): 101%
IC50 (read-out: IC50): 0.054 µM

CCOP(=O)(OCC)C(Cc1cc(C(F)(F)F)ccc1Cl)c1sc2ccccc2c1Cl (stereo not drawn) [Cpd 274]
% I (0.5 μM): 95%
IC50 (read-out: IC50): 0.301 µM

CCOP(=O)(OCC)C(Cc1cccc(Cl)c1Cl)c1sc2ccccc2c1C (stereo not drawn) [Cpd 35]
% I (1 μM): 100%
IC50 (read-out: IC50): 0.125 µM

CCOP(=O)(OCC)C(Cc1cccc(Br)c1)c1sc2ccccc2c1Cl (stereo not drawn) [Cpd 275]
% I (0.5 μM): 103%
IC50 (read-out: IC50): 0.104 µM

CC(C)OP(=O)(OC(C)C)C(Cc1cc(C(F)(F)F)cc(C(F)(F)F)c1)c1sc2ccccc2c1Cl (racemic) [Cpd 171]
% I (0.5 μM): 95%
IC50 (read-out: IC50): 0.221 µM

CCOP(=O)(OCC)C(Cc1cccc(O)c1)c1sc2ccccc2c1Br (stereo not drawn) [Cpd 316]
% I (0.5 μM): 103% and 104%
IC50 (read-out: IC50): 0.032 µM and 0.02 µM

CCOP(=O)(OCC)C(Cc1ccc(F)c(F)c1)c1sc2cccc(F)c2c1Br (racemic) [Cpd 224]
% I (0.5 μM): 102%
IC50 (read-out: IC50): 0.044 µM

CCOP(=O)(CC(C)C)C(Cc1ccc(F)c(F)c1)c1sc2ccccc2c1C (stereo not drawn) [Cpd 6, [2-(3,4-Difluoro-phenyl)-1-(3-methyl-benzo[b]thiophene-2-yl)-ethyl]-isobutyl-phosphonic acid ethyl ester]
% I (1 μM): 100%
IC50 (read-out: IC50): 0.028 µM

CCOP(=O)(OCC)C(Cc1ccc(F)c(F)c1)c1cc2cccnc2s1 (stereo not drawn) [Cpd 131]
% I (1 μM): 28%

CCOP(=O)(OCC)C(Cc1ccccc1C(F)(F)F)c1sc2ccccc2c1C (stereo not drawn) [Cpd 59]
% I (1 μM): 99%
IC50 (read-out: IC50): 0.27 µM

CCOP(=O)(OCC)C(Cc1ccc2ccccc2c1)c1cc2ccccc2s1 (stereo not drawn) [Cpd 83]
% I (1 μM): 84%
IC50 (read-out: IC50): 0.45 µM

CCOP(=O)(OCC)C(Cc1cc(F)cc(C(F)(F)F)c1)c1sc2ccccc2c1Cl (stereo not drawn) [Cpd 278]
% I (0.5 μM): 103%
IC50 (read-out: IC50): 0.159 µM

CCOP(=O)(OCC)C(Cc1ccc(OC)c(F)c1)c1sc2ccccc2c1Br (racemic) [Cpd 158]
% I (0.5 μM): 101%
IC50 (read-out: IC50): 0.059 µM

CCOP(=O)(OCC)C(Cc1cc(F)cc(C(F)(F)F)c1)c1sc2ccccc2c1C (stereo not drawn) [Cpd 56]
% I (1 μM): 103%
IC50 (read-out: IC50): 0.24 µM

CCOP(=O)(OCC)C(Cc1ccc(F)c(F)c1)c1sc2ccccc2c1-c1ccccc1F (racemic) [Cpd 216]
% I (0.5 μM): 100%
IC50 (read-out: IC50): 0.126 µM

CCOP(=O)(OCC)C(Cc1ccc(F)c(C(F)(F)F)c1)c1sc2cccc(F)c2c1Br (racemic) [Cpd 223]
% I (0.5 μM): 102%
IC50 (read-out: IC50): 0.052 µM

CC(C)OP(=O)(OC(C)C)C(Cc1ccc(F)c(Cl)c1)c1sc2ccccc2c1Br (racemic) [Cpd 248]
% I (0.5 μM): 104%
IC50 (read-out: IC50): 0.021 µM

CCOP(=O)(OCC)C(Cc1ccc(F)c(F)c1)c1cc2ccccc2o1 (stereo not drawn) [Cpd 265]
% I (1 μM): 95%
IC50 (read-out: IC50): 0.409 µM

CC(C)OP(=O)(OC(C)C)C(Cc1ccc(F)c(C(F)(F)F)c1)c1sc2cccc(F)c2c1Br (racemic) [Cpd 222]
% I (0.5 μM): 103%
IC50 (read-out: IC50): 0.033 µM

CC(C)OP(=O)(OC(C)C)C(Cc1cc(F)cc(F)c1)c1sc2ccccc2c1Br (stereo not drawn) [Cpd 193]
% I (1 μM): 103%
IC50 (read-out: IC50): 0.059 µM
